The subject of the assay is ADSC/ECFC co-culture, VEGF-stimulated, CD31 tube area. Put plainly: ADSC/ECFC co-culture angiogenesis inhibition – imaging, VEGF stimulation, CD31 staining, tube area, IC50, dose response (AID 1117337).

Activity calls are given as the source filed them. No rule for the calls is given here.

The IC50 is the concentration that gives 50% inhibition. Turning to `Cc1onc(-c2c(Cl)cccc2Cl)c1C(=O)Cl`, the IC50 is > 10 µM (inactive). Turning to `CN(Cc1cnc2nc(N)nc(N)c2n1)c1ccc(C(=O)N[C@@H](CCC(=O)O)C(=O)O)cc1`, the IC50 was > 10 µM (inactive).

As to `CN[C@@H]1C[C@@H](c2ccc(Cl)c(Cl)c2)c2ccccc21`, the IC50 is > 10 µM (inactive). Consider `COC(=O)c1nc(Cl)c(Cl)nc1N`, for which the 50% inhibitory concentration (IC50) was 0.865 µM. As to `O=NN(CCCl)C(=O)NC1CCCCC1`, the IC50 was > 10 µM (inactive).

In the case of `CCCCCCCCCCC[C@@H](C[C@@H]1OC(=O)[C@H]1CCCCCC)OC(=O)[C@H](CC(C)C)NC=O`, the IC50 is > 10 µM (inactive). As for `COc1cc([C@@H]2c3cc4c(cc3[C@H](O)[C@H]3COC(=O)[C@H]23)OCO4)cc(OC)c1OC`, the IC50 was 0.0081 µM. As to `COc1cc(S(N)(=O)=O)cc(C(=O)O)c1OC`, the IC50 is > 10 µM (inactive). With `CCCCC1C(=O)N(c2ccccc2)N(c2ccc(O)cc2)C1=O` (configuration not stated) the figure was 3.29 µM. `CN(C)c1ccc(C(=C2C=CC(=[N+](C)C)C=C2)c2ccccc2)cc1`: the half-inhibitory concentration (IC50) was 0.0605 µM. Turning to `CCCCC(CC)COC(=O)CC(C(=O)OCC(CC)CCCC)S(=O)(=O)O` (configuration not stated), the IC50 was > 10 µM (inactive). In the case of `CCCCCCCCCCCC[N+](C)(C)Cc1ccccc1`, the IC50 was > 10 µM (inactive).

With `CN1CCN(CCCN2c3ccccc3Sc3ccc(S(=O)(=O)N(C)C)cc32)CC1`, the IC50 was > 10 µM (inactive).

With `Cc1cc(C(C#N)c2ccc(Cl)cc2)c(Cl)cc1NC(=O)c1cc(I)cc(I)c1O` (configuration not stated), the IC50 was > 10 µM (inactive). The same measure for `O=C(O)c1ccc(-n2nc(-c3ccccc3O)nc2-c2ccccc2O)cc1`: 2.09 µM; for `C#C[C@]1(O)CC[C@H]2[C@@H]3CCc4cc(O)ccc4[C@H]3CC[C@@]21C`: > 10 µM (inactive).

For the molecule `NC(=O)c1cccnc1`, the IC50 was > 10 µM (inactive). The same measure for `OC[C@H]1O[C@@H](n2cnc3c(=S)nc[nH]c32)[C@H](O)[C@@H]1O`: 1.42 µM.

Take `CC(=O)Oc1ccc(C2(c3ccc(OC(C)=O)cc3)C(=O)Nc3ccccc32)cc1`: the IC50 was > 10 µM (inactive). Regarding `O=C1C(=O)c2ccccc2C(O)=C1C1CCC(c2ccc(Cl)cc2)CC1` (configuration not stated), the IC50 is 5.18 µM (inactive). The same measure for `CC(C)=CCOc1ccc(/C=C/C(=O)c2ccc(OCC=C(C)C)cc2OCC(=O)O)cc1`: > 10 µM (inactive). The same measure for `CCC(C)n1ncn(-c2ccc(N3CCN(c4ccc(OC[C@H]5CO[C@](Cn6cncn6)(c6ccc(Cl)cc6Cl)O5)cc4)CC3)cc2)c1=O` (some centres not stated): 1.55 µM; for `O=C(CCBr)N1CCN(C(=O)CCBr)CC1`: 1.37 µM; for `Cc1ccc(O)cc1`: > 10 µM (inactive). For `COc1cccc2c1C(=O)c1c(O)c3c(c(O)c1C2=O)C[C@@](O)(C(=O)CO)CC3OC1CC(N2CCOC(OC)C2)C(O)C(C)O1` (some centres not stated), the IC50 is 0.003 µM.

`Nc1nc(F)nc2c1ncn2[C@@H]1O[C@H](CO)[C@@H](O)[C@@H]1O`: the IC50 is 8.45 µM (inactive). As for `CC(=O)[O][Hg][c]1ccccc1`, the IC50 was 0.53 µM. On to `CC(=O)Oc1ccccc1C(=O)Nc1ncc([N+](=O)[O-])s1`, for which the IC50 is 2.06 µM. As for `CCc1oc2ccccc2c1C(=O)c1cc(Br)c(O)c(Br)c1`, the IC50 is > 10 µM (inactive).

For `COc1ccc(/C=N/NC(=O)c2ccncc2)cc1OC`, the IC50 is > 10 µM (inactive). The same measure for `CN1CCN(CCCN2c3ccccc3Sc3ccc(C(F)(F)F)cc32)CC1`: > 10 µM (inactive); for `O=C(O)CCCc1ccc(N(CCCl)CCCl)cc1`: 1.24 µM; for `Cc1cc(N)c2ccccc2[n+]1CCCCCCCCCC[n+]1c(C)cc(N)c2ccccc21`: > 10 µM (inactive). For `CN1CCN(C2Cc3ccccc3Sc3ccc(Cl)cc32)CC1` (configuration not stated), the IC50 was 5.23 µM (inactive).

As to `O[C@@H](CNC[C@H](O)[C@H]1CCc2cc(F)ccc2O1)[C@@H]1CCc2cc(F)ccc2O1`, the IC50 is > 10 µM (inactive). With `CCOC(=O)C=C(C)C=CC[C@@H](C)CCCC(C)C`, the IC50 was > 10 µM (inactive).

On to `CC(=O)N(O)CCCCCNC(=O)CCC(=O)N(O)CCCCCNC(=O)CCC(=O)N(O)CCCCCN`, for which the IC50 is 4.53 µM. Take `Cc1nc2ccccc2n1Cc1ccc(Cl)cc1`: the IC50 is 7.38 µM (inactive). The same measure for `C[C@@H]1C[C@H]2[C@@H]3CCC4=CC(=O)C=C[C@]4(C)[C@@]3(Cl)[C@@H](O)C[C@]2(C)[C@@]1(OC(=O)c1ccco1)C(=O)CCl`: 4.99 µM; for `COc1cccc(CCc2ccccc2OCC(CN(C)C)OC(=O)CCC(=O)O)c1` (configuration not stated): > 10 µM (inactive). The same measure for `NC(=O)n1c(O)c(C(=O)c2cccs2)c2cc(Cl)ccc21`: > 10 µM (inactive).

Take `CC(=O)O[C@H]1C[C@H](O[C@H]2[C@@H](O)C[C@H](O[C@@H]3[C@@H](O)C[C@H](O[C@H]4CC[C@@]5(C)[C@H](CC[C@@H]6[C@H]5C[C@@H](O)[C@]5(C)[C@@H](C7=CC(=O)OC7)CC[C@]65O)C4)O[C@@H]3C)O[C@@H]2C)O[C@H](C)[C@H]1O[C@@H]1O[C@H](CO)[C@@H](O)[C@H](O)[C@@H]1O`: the concentration for half-maximal inhibition (IC50) is 0.0702 µM. In the case of `O=C1NCN(c2ccccc2)C12CCN(CCCC(c1ccc(F)cc1)c1ccc(F)cc1)CC2`, the IC50 is > 10 µM (inactive). On to `CN1CCCC(CC2c3ccccc3Sc3ccccc32)C1` (configuration not stated), for which the IC50 is 8.68 µM (inactive). `Clc1ccc(CSC(Cn2ccnc2)c2ccc(Cl)cc2Cl)cc1` (configuration not stated): the IC50 was 2.13 µM.

In the case of `COc1cccc2c1C(=O)c1c(O)c3c(c(O)c1C2=O)C[C@@](O)(C(=O)CO)C[C@@H]3O[C@H]1C[C@H](N)[C@H](O)[C@H](C)O1`, the IC50 was 0.0429 µM.

Take `Cc1c(C(=O)NN2CCCCC2)nn(-c2ccc(Cl)cc2Cl)c1-c1ccc(Cl)cc1`: the IC50 is > 10 µM (inactive). Take `Oc1c(Cl)cc(Cl)c2cccnc12`: the half-inhibitory concentration (IC50) is 2 µM.

Turning to `CC[C@]1(O)C[C@H]2CN(CCc3c([nH]c4ccccc34)[C@@](C(=O)OC)(c3cc4c(cc3OC)N(C=O)[C@H]3[C@@](O)(C(=O)OC)[C@H](OC(C)=O)[C@]5(CC)C=CCN6CC[C@]43[C@@H]65)C2)C1`, the IC50 was 0.0065 µM. Turning to `OCCN1CCN(CCCN2c3ccccc3Sc3ccc(Cl)cc32)CC1`, the IC50 was > 10 µM (inactive). In the case of `C=C(C)[C@H]1Cc2c(ccc3c2O[C@@H]2COc4cc(OC)c(OC)cc4[C@@H]2C3=O)O1`, the half-maximal inhibitory concentration (IC50) is 0.0257 µM.

For the molecule `CCCCCCCC[N+](C)(C)CCCCCCCC`, the IC50 is 1.39 µM. For `CC(C)(C)C1CCC(CC2=C(O)c3ccccc3C(=O)C2=O)CC1` (configuration not stated), the IC50 was 1.96 µM.

For the molecule `O=C(Nc1ccc(Br)cc1)c1cc(Br)c(Br)s1`, the IC50 is > 10 µM (inactive). Turning to `CCCCC(=O)O[C@H]1CC[C@H]2[C@@H]3CCc4cc(O)ccc4[C@@H]3CC[C@]12C`, the IC50 is > 10 µM (inactive). With `CC(=O)O[C@@]12CO[C@@H]1C[C@H](O)[C@@]1(C)C(=O)[C@H](O)C3=C(C)[C@@H](OC(=O)[C@H](O)[C@@H](NC(=O)OC(C)(C)C)c4ccccc4)C[C@@](O)([C@@H](OC(=O)c4ccccc4)[C@H]21)C3(C)C`, the IC50 is 0.001 µM. Take `COc1c(C)c2c(c(O)c1C/C=C(\C)CCC(=O)OCCN1CCOCC1)C(=O)OC2`: the 50% inhibitory concentration (IC50) is 1.26 µM. For the molecule `CC(C)OC(=O)OCOP(=O)(CO[C@H](C)Cn1cnc2c(N)ncnc21)OCOC(=O)OC(C)C`, the IC50 is 3.84 µM. The same measure for `Cc1ccc(Nc2c(F)cccc2Cl)c(CC(=O)O)c1`: > 10 µM (inactive); for `C=CCN1CC[C@]23CCCC[C@H]2[C@H]1Cc1ccc(O)cc13`: > 10 µM (inactive); for `CN(C)CCOC1=Cc2ccccc2Sc2ccc(Cl)cc21`: > 10 µM (inactive).

For `O=c1oc2c(O)c(O)cc3c(=O)oc4c(O)c(O)cc1c4c23`, the IC50 was > 10 µM (inactive). `CCCCCN=C(N)N/N=C/c1c[nH]c2ccc(OC)cc12`: the half-maximal inhibitory concentration (IC50) is 3.13 µM. The same measure for `CC(=O)N(CC(O)CN(C(C)=O)c1c(I)c(C(=O)NCC(O)CO)c(I)c(C(=O)NCC(O)CO)c1I)c1c(I)c(C(=O)NCC(O)CO)c(I)c(C(=O)NCC(O)CO)c1I` (configuration not stated): > 10 µM (inactive); for `COC(=O)Nc1nc2ccc(C(=O)c3cccs3)cc2[nH]1`: 0.102 µM; for `Cc1ccc([N+](=O)[O-])[c]2c1[O][Hg]2`: 0.668 µM.

Turning to `CNC(=O)Oc1cccc2ccccc12`, the IC50 is > 10 µM (inactive). The same measure for `Cc1nc(Nc2ncc(C(=O)Nc3c(C)cccc3Cl)s2)cc(N2CCN(CCO)CC2)n1`: > 10 µM (inactive); for `CCCCCCCC(=O)OCC(COC(=O)CCCCCCC)OC(=O)CCCCCCC`: > 10 µM (inactive).

Take `CCOC(=O)[C@H](CCc1ccccc1)N[C@@H](C)C(=O)N1C(=O)N(C)C[C@H]1C(=O)O`: the IC50 is > 10 µM (inactive). Turning to `COc1cc(C=C2CCC/C(=C\c3ccc(O)c(OC)c3)C2=O)ccc1O`, the IC50 is > 10 µM (inactive). Regarding `CCOC(=O)C1=C(C)NC(C)=C(C(=O)OCC)C1c1ccccc1/C=C/C(=O)OC(C)(C)C`, the IC50 is > 10 µM (inactive). With `CCCCc1oc2ccc(NS(C)(=O)=O)cc2c1C(=O)c1ccc(OCCCN(CCCC)CCCC)cc1`, the IC50 is 2.75 µM. For `CC(C)(C)c1ccc(C(O)CCCN2CCC(C(O)(c3ccccc3)c3ccccc3)CC2)cc1` (configuration not stated), the 50% inhibitory concentration (IC50) was 3.25 µM. The same measure for `Cc1ccc(C(=O)Oc2ccc(C(O)CNC(C)(C)C)cc2OC(=O)c2ccc(C)cc2)cc1` (configuration not stated): > 10 µM (inactive). For the molecule `O=C1NC2CCCCN2C12CCN(CCCN1c3ccccc3CCc3ccc(Cl)cc31)CC2` (configuration not stated), the IC50 was > 10 µM (inactive). `CCCCN(CCCC)CCC(O)c1cc2c(Cl)cc(Cl)cc2c2cc(C(F)(F)F)ccc12` (configuration not stated): the IC50 was > 10 µM (inactive). The same measure for `CCCCC(CC)COC(=O)C(C#N)=C(c1ccccc1)c1ccccc1` (configuration not stated): > 10 µM (inactive). With `O=C(c1ccc(F)cc1)C1CCN(CCn2c(=O)[nH]c3ccccc3c2=O)CC1` the figure was > 10 µM (inactive); with `CNS(=O)(=O)CCc1ccc2[nH]cc(C3CCN(C)CC3)c2c1`, > 10 µM (inactive); with `COc1ccc2c(c1)c1c3n2CCN(C)C3=NCC1`, > 10 µM (inactive).

As to `CCCOC(=O)c1cc(O)c(O)c(O)c1`, the IC50 was > 10 µM (inactive).
